# Measured values published in patent publication US11896583B2, “Tinostamustine for use in treating ovarian cancer” (EURO-CELTIQUE S.A., priority 2017, dated 2024).
# System: tumour spheroids from primary ovarian cancer tissue
# Assay: Ovarian cancer spheroid model, ATP assay (CellTiter-Glo) of cell viability / metabolic activity
# Protocol: Fresh primary ovarian cancer samples were obtained after informed consent of the individual patient was given. Patients were recruited following clinical diagnosis, and prior to chemotherapy commencing.
# Heterotypic tumour spheroids were prepared from the individual primary ovarian cancer tissue. The tumour samples were mechanically and enzymatically digested using an enzyme cocktail (Roche, Penzberg Germany), cell viability determined using the trypan-blue exclusion test, and spheroids seeded at a cell density of 50,000 using a modified liquid overlay method. After 48 h in cell culture under standard conditions, successful spheroid formation was documented photographically before starting treatment.
# Each experiment was repeated six times, and both untreated (medium) control and two positive controls (carboplatin+paclitaxel and vorinostat) were used under the same culture conditions. Treatment efficacy, i.e. treatment-induced reduction of the cellular metabolic activity (cell viability) was analyzed using a standard ATP assay.
# Once the feasibility study was completed, tumour spheroids consisting of 50,000 cells were prepared from the individual primary ovarian cancer tissue as described above. After 48 h, spheroid formation was documented photographically before starting treatment. […] Treatment efficacy was evaluated using a standard ATP assay, details of which are provided below.
# ATP assay test from Promega: CellTiter-Glo®. The CellTiter-Glo® Luminescent Cell Viability Assay is a homogeneous method to determine the number of viable cells in culture based on quantitation of the ATP present, which signals the presence of metabolically active cells. […] The homogeneous assay procedure involves adding a single reagent (CellTiter-Glo® Reagent) directly to cells cultured in serum-supplemented medium.
# The homogeneous “add-mix-measure” format results in cell lysis and generation of a luminescent signal proportional to the amount of ATP present.
Compound,"reduction in cell viability to (FIG. 1, patient #5284, 5 μM, after 48 h)","reduction in cell viability (compared to the untreated control) (FIG. 1, patient #5284, 7.5 μM)","reduction in cell viability (compared to the untreated control) (FIG. 1, patient #5284, 10 μM)","cell viability compared to control untreated spheroids (FIG. 1, patient #5284, 2.5-10 μM)","reduction in cell viability compared with carboplatin+paclitaxel (FIG. 1, patient #5284, 5, 7.5 and 10 μM, after 48 h)","reduction in cell viability compared with carboplatin+paclitaxel (FIG. 1, patient #5284, 5, 7.5 and 10 μM, after 72 h)","reduction in cell viability compared with vorinostat (FIG. 1, patient #5284, 5, 7.5 and 10 μM, all time points)","time dependence of cell viability (FIG. 1, patient #5284, higher concentrations)","time dependence of cell viability (FIG. 1, patient #5284, lower concentrations, 48 h to 96 h)","efficacy compared with positive controls (FIG. 2, patient #5285, feasibility study)","reduction in cell viability, combination therapy (FIG. 4, n=8, EDO-S101 5 μM, carboplatin 110 μM, paclitaxel 1.79 μM, 72 h)","effect of adding EDO-S101 to other treatments (FIG. 6, patient #5295, 72 h)","efficacy compared with carboplatin (FIG. 6, patient #5295, 72 h)","metabolic activity (ATP assay) (FIG. 6, patient #5295, 72 h)","effect of adding EDO-S101 to other treatments (FIG. 7, patient #5296, 72 h)","metabolic activity (ATP assay) (FIG. 7, patient #5296, 72 h)","metabolic activity (ATP assay) (FIG. 8, patient #5310, 72 h, samples from ovary and omentum)","metabolic activity (ATP assay) (FIG. 9, patient #5311, 72 h)","metabolic activity (ATP assay) (FIG. 10, patient #5329, 72 h)"
"Cn1c(CCCCCCC(=O)NO)nc2cc(N(CCCl)CCCl)ccc21 [EDO-S101, 7-(5-(bis(2-chloroethyl)amino)-1-methyl-1H-benzo[d]imidazol-2-yl)-N-hydroxyheptanamide]",50%,~80%,~80%,A reduction in cell viability was observed,greater than that in spheroids treated with carboplatin+paclitaxel after 48 h,comparable after 72 h,greater than that in spheroids treated with vorinostat at all time points,did not decrease in a time dependent manner,decreased in a time dependent manner,better than both carboplatin+paclitaxel or vorinostat,"median reduction in cell viability comparable to carboplatin+paclitaxel, but with enhanced average potency across the experimental group","further reduced metabolic activity when used in combination with carboplatin, paclitaxel and carboplatin+paclitaxel",comparable to that of carboplatin,shows a reduction in metabolic activity compared to the negative control,"enhanced efficacy when in combination with carboplatin, paclitaxel and carboplatin+paclitaxel","enhanced reduction in metabolic activity compared to vorinostat, carboplatin or paclitaxel",effective in treating ovarian cancer from the omentum,comparable efficacy to that observed in spheroids treated with vorinostat,comparable or improved activity compared to vorinostat and carboplatin as monotherapies
"CC(=O)O[C@H]1C(=O)[C@@]2(C)[C@H]([C@H](OC(=O)c3ccccc3)[C@]3(O)C[C@H](OC(=O)[C@H](O)[C@@H](NC(=O)c4ccccc4)c4ccccc4)C(C)=C1C3(C)C)[C@]1(OC(C)=O)CO[C@@H]1C[C@@H]2O [paclitaxel, reference compound]",,,,,,,,,,,,,,negligible efficacy,,,,,
"O=C(CCCCCCC(=O)Nc1ccccc1)NO [vorinostat, reference compound]",,,,,,,,,,,,,,negligible efficacy,,,,,
